For ten compounds, Ki and inhibition results are on record in ChEMBL document CHEMBL1133256, “6-Bicyclopiperazinyl-1-arylsulfonylindoles and 6-bicyclopiperidinyl-1-arylsulfonylindoles derivatives as novel, potent, and selective 5-HT6 receptor antagonists” (Bioorg Med Chem Lett, 2000).

Assay [1] addresses 5-hydroxytryptamine receptor 6 (Homo sapiens, UniProt P50406). Nature of the assay: Displacement of [3H]LSD from human 5-hydroxytryptamine 6 receptor expressed in HEK 293 cells. Type of assay: cell-based, HEK293. In general terms: In a radioligand displacement assay an active substance lowers the binding of a labelled ligand.
In assay [2] the target is T1, 5-hydroxytryptamine receptor 1A (Homo sapiens) (UniProt P08908).
T1 sequence (whole entry): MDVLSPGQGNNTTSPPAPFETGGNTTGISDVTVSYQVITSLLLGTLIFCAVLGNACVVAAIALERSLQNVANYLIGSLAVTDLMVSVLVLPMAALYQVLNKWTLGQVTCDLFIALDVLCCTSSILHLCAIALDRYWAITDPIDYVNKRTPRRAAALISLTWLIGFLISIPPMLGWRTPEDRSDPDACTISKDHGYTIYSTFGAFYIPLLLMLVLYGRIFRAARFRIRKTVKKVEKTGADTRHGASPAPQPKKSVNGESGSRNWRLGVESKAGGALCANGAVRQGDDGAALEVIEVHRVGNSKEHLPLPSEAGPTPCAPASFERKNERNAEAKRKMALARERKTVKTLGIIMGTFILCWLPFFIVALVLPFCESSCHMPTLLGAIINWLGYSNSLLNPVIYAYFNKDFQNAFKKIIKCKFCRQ
Nature of the assay: In vitro binding affinity against human 5-hydroxytryptamine 1A receptor at a concentration of 100 (nM).

The target in assay [3] is 5-hydroxytryptamine receptor 1B (Homo sapiens) (UniProt P28222). Nature of the assay: In vitro binding affinity against human 5-hydroxytryptamine 1B receptor at a concentration of 100 (nM).
5-hydroxytryptamine receptor 1B (Homo sapiens), sequence (P28222 whole entry): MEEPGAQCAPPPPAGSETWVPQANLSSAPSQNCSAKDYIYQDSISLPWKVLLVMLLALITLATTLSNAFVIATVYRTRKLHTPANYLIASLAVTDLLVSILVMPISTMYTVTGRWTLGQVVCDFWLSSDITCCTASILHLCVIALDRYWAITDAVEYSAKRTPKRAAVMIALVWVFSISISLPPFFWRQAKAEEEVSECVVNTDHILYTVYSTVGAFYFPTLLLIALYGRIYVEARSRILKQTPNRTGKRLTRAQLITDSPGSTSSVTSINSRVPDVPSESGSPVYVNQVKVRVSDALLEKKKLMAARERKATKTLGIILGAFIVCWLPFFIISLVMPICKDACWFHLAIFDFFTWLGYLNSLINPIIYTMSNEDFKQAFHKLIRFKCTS
In assay [4] the target is T2, 5-hydroxytryptamine receptor 1F (Homo sapiens) (UniProt P30939).
T2 sequence (whole entry): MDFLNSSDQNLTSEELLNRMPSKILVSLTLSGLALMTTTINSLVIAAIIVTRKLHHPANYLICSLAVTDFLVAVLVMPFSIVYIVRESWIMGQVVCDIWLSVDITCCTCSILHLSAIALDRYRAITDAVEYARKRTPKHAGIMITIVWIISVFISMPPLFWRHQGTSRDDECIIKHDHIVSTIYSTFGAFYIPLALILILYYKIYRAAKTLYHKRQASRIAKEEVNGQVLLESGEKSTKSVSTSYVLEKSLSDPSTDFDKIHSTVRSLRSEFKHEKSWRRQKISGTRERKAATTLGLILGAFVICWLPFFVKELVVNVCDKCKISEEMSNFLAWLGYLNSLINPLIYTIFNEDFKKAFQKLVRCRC
As to the kind of experiment: In vitro binding affinity against human 5-hydroxytryptamine 1F receptor at a concentration of 100 (nM).

In assay [5] the target is 5-hydroxytryptamine receptor 1D (Homo sapiens) (UniProt P28221). Nature of the assay: In vitro binding affinity against human 5-hydroxytryptamine 1D receptor at a concentration of 100 (nM).
5-hydroxytryptamine receptor 1D (Homo sapiens), sequence (P28221 whole entry): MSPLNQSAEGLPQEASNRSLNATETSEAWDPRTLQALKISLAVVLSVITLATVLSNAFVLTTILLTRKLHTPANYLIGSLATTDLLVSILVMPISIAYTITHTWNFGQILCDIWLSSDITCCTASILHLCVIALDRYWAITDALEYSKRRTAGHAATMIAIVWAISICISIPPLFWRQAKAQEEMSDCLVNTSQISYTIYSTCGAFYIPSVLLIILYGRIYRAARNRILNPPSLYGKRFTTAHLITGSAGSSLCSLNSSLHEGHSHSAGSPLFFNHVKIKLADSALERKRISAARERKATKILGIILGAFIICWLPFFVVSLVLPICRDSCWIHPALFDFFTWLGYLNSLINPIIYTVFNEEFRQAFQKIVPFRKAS
For assay [6], the target named is 5-hydroxytryptamine receptor 2A (Homo sapiens) (UniProt P28223). As to the kind of experiment: In vitro binding affinity against human 5-hydroxytryptamine 2A receptor at a concentration of 100 (nM).
5-hydroxytryptamine receptor 2A (Homo sapiens), sequence (P28223 whole entry): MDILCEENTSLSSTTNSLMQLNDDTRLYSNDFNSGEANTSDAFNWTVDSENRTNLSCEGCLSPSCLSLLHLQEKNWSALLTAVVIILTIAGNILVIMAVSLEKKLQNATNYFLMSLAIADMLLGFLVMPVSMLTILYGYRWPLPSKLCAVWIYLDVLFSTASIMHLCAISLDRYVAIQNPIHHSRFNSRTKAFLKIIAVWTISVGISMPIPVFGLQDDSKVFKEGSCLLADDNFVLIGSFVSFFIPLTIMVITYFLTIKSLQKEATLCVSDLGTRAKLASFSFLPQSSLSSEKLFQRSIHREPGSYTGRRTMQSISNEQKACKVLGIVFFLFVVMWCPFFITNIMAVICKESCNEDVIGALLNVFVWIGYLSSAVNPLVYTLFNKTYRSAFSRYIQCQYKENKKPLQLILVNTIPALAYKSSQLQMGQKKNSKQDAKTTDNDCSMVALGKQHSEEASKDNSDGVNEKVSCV
Assay [7] addresses 5-hydroxytryptamine receptor 2B (Homo sapiens) (UniProt P41595). Nature of the assay: In vitro binding affinity against human 5-HT2B receptor at a concentration of 100 (nM).
Assay [8] has as its target T3, 5-hydroxytryptamine receptor 2C (Homo sapiens) (UniProt P28335).
T3 sequence (whole entry): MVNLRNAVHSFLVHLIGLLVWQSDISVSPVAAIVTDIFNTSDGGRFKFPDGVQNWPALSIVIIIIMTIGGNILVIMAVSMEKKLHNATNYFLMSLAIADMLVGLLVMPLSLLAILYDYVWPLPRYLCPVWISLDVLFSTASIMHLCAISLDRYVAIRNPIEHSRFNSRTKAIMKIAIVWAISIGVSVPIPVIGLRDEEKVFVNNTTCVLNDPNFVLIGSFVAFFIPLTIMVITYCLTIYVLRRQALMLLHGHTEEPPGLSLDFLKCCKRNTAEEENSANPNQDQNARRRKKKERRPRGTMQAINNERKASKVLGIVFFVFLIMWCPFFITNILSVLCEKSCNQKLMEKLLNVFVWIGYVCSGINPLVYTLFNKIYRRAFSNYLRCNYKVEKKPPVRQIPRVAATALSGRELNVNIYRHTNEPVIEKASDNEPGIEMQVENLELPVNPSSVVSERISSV
Nature of the assay: In vitro binding affinity against human 5-hydroxytryptamine 2C receptor at a concentration of 100 (nM).

Assay [9] concerns the target 5-hydroxytryptamine receptor 7 (Homo sapiens) (UniProt P34969). Nature of the assay: In vitro binding affinity against human 5-hydroxytryptamine 7 receptor at a concentration of 100 (nM).
In assay [10] the target is Adrenergic receptor alpha-1 (Homo sapiens) (UniProt P35348+P25100+P35368). Nature of the assay: In vitro binding affinity against human Alpha-1 adrenergic receptor at a concentration of 100 (nM). Type of assay: protein assay.
For assay [11], the target named is D(1A) dopamine receptor (Homo sapiens) (UniProt P21728). Nature of the assay: In vitro binding affinity against human Dopamine receptor D1 at a concentration of 100 (nM).
D(1A) dopamine receptor (Homo sapiens), sequence (P21728 whole entry): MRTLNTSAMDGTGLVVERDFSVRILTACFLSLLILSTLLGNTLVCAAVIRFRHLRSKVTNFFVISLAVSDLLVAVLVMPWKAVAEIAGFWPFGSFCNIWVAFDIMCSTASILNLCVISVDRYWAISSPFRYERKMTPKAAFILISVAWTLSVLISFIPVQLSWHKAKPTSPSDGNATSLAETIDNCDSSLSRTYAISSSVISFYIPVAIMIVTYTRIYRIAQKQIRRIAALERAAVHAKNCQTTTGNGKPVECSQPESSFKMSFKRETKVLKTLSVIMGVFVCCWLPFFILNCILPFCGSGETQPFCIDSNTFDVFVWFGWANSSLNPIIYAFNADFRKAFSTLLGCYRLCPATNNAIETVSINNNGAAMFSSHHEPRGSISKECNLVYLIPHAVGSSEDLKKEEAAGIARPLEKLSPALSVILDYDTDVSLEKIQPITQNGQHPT
For assay [12], the target named is D(3) dopamine receptor (Homo sapiens) (UniProt P35462). As to the kind of experiment: In vitro binding affinity against human Dopamine receptor D3 at a concentration of 100 (nM).
D(3) dopamine receptor (Homo sapiens), sequence (P35462 whole entry): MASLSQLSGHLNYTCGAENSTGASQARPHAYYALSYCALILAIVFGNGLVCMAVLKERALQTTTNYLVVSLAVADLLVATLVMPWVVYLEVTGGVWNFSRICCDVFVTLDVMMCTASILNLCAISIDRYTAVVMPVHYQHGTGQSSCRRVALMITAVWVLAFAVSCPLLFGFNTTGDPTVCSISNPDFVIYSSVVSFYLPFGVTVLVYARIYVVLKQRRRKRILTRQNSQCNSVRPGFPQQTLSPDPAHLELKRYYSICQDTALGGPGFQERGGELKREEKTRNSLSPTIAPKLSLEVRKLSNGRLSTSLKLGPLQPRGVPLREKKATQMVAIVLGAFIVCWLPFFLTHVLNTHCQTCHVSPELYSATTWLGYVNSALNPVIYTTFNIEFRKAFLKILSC
Assay [13] deals with T4, D(4) dopamine receptor (Homo sapiens) (UniProt P21917).
T4 sequence (whole entry): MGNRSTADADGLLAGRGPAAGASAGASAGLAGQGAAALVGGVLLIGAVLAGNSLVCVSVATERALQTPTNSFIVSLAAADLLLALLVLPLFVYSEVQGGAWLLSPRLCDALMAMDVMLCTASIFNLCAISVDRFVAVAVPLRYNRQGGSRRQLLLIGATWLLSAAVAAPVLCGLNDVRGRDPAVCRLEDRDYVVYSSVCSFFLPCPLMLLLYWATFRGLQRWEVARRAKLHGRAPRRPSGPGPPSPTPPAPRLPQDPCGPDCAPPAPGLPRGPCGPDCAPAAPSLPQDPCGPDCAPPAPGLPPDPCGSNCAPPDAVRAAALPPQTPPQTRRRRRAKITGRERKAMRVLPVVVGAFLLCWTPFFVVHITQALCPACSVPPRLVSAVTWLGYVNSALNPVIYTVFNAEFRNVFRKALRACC
As to the kind of experiment: In vitro binding affinity against human Dopamine receptor D4 at a concentration of 100 (nM).

For assay [14], the target named is D(1B) dopamine receptor (Homo sapiens) (UniProt P21918). Nature of the assay: In vitro binding affinity against human D5 receptor at a concentration of 100 (nM).
D(1B) dopamine receptor (Homo sapiens), sequence (P21918 whole entry): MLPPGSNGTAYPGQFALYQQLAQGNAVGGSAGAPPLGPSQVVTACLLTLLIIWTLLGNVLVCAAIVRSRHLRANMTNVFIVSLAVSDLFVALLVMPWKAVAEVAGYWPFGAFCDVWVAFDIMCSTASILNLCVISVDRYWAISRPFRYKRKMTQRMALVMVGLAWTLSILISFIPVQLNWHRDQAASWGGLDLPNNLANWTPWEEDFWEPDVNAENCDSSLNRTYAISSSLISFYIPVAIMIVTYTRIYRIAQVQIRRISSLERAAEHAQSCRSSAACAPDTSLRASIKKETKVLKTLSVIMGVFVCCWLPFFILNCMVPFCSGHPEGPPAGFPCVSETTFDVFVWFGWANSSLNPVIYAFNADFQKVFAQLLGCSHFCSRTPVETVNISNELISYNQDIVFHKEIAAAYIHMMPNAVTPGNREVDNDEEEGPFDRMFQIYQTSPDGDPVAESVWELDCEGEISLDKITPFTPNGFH
Assay [15] has as its target Muscarinic acetylcholine receptors; M1 & M2 (Homo sapiens) (UniProt P11229+P08172). Nature of the assay: In vitro binding affinity against human Muscarinic acetylcholine receptor M1- Muscarinic acetylcholine receptor M2 at a concentration of 100 (nM). Type of assay: protein assay.
Assay [16] addresses D(2) dopamine receptor (Homo sapiens) (UniProt P14416). Nature of the assay: In vitro binding affinity against human Dopamine receptor D2 at a concentration of 100 (nM).

5-hydroxytryptamine receptor 6, sequence (P50406 whole entry): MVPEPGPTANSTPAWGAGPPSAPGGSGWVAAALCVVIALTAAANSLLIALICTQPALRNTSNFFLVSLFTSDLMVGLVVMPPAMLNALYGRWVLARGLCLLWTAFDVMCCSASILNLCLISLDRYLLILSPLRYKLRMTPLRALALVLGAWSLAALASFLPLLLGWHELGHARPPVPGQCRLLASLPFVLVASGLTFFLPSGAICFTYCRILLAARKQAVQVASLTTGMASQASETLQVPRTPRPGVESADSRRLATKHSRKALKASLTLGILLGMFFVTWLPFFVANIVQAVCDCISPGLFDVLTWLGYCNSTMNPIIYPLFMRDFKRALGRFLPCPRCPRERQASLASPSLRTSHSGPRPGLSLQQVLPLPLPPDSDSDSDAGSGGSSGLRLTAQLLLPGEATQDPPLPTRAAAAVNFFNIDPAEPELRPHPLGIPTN
D(2) dopamine receptor (Homo sapiens), sequence (P14416 whole entry): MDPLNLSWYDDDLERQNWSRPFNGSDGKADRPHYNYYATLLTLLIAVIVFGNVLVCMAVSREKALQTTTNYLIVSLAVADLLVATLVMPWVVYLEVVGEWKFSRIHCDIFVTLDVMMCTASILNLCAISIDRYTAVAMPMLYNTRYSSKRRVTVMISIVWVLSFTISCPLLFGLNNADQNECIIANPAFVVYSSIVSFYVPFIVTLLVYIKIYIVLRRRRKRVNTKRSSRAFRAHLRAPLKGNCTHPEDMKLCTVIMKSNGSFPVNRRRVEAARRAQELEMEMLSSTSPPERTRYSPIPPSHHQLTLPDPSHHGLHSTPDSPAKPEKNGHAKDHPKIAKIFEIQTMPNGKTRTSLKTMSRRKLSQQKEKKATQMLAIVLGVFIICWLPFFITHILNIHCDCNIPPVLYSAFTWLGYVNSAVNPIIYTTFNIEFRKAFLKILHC
5-hydroxytryptamine receptor 7 (Homo sapiens), sequence (P34969 whole entry): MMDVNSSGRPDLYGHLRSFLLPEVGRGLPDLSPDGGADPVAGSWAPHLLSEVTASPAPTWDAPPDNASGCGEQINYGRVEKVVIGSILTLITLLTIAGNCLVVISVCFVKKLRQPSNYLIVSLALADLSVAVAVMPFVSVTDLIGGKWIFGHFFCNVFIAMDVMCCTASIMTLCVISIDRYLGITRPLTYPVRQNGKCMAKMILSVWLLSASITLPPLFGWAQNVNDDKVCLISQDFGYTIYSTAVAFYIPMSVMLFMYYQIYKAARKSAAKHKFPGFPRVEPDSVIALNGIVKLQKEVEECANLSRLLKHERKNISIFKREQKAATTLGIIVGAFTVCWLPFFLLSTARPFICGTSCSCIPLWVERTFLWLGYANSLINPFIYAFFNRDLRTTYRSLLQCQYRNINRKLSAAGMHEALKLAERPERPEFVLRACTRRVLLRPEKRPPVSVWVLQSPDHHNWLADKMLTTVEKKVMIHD
5-hydroxytryptamine receptor 2B (Homo sapiens), sequence (P41595 whole entry): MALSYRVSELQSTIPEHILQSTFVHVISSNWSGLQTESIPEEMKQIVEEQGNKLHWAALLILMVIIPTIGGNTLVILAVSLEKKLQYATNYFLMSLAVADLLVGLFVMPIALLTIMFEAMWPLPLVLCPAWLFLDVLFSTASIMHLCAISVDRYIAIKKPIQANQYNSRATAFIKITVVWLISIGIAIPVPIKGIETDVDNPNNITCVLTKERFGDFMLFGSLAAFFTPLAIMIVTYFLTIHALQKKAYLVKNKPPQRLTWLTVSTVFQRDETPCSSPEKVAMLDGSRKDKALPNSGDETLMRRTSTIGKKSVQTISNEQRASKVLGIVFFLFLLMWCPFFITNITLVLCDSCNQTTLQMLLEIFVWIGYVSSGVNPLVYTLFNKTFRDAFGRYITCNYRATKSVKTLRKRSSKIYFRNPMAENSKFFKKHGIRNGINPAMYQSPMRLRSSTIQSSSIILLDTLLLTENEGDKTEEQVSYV

By Ki is commonly meant a dissociation constant, usually derived from enzyme kinetics or from competition with a known ligand. Take `O=S(=O)(c1cccc2ccccc12)n1ccc2ccc(C3CCN4CCCC4C3)cc21` (single isomer, unassigned; less polar): the Ki in assay [1] stood at 0.6 nM.

In turn, `O=S(=O)(c1ccc(F)cc1F)n1ccc2ccc(N3CCN4CCCCC4C3)cc21` (centres undefined) gave a Ki in assay [1] of 3.6 nM.

The compound `Cc1ccc(S(=O)(=O)n2ccc3ccc(N4CCN5CCCC5C4)cc32)cc1` (centres undefined) registered a Ki in assay [1] of 3.3 nM.

Consider `Cc1ccc(S(=O)(=O)n2ccc3ccc(N4CCN5CCCCC5C4)cc32)cc1` (centres undefined), for which, in assay [1], the affinity, expressed as Ki, was 4.9 nM.

The compound `O=S(=O)(c1cccc2ccccc12)n1ccc2ccc(C3=CCN4CCCC4C3)cc21` (centres undefined) returned a Ki in assay [1] of 1.3 nM.

In turn, `O=S(=O)(c1ccccc1)n1ccc2ccc(N3CCN4CCCCC4C3)cc21` (centres undefined) gave a Ki in [1] of 5.7 nM.

Turning to `O=S(=O)(c1cccc2ccccc12)n1ccc2ccc(C3(O)CCN4CCCC4C3)cc21` (centres undefined), the affinity in assay [1], expressed as Ki, was 4.7 nM.

The compound `O=S(=O)(c1cccc2ccccc12)n1ccc2ccc(N3CCN4CCCCC4C3)cc21` (centres undefined) showed a Ki in assay [1] of 1.7 nM.

In assay [1], `O=S(=O)(c1ccc2ccccc2c1)n1ccc2ccc(N3CCN4CCCCC4C3)cc21` (centres undefined) had a Ki of 3 nM.

By inhibition is commonly meant how much of the control response was suppressed. For the compound `O=S(=O)(c1cccc2ccccc12)n1ccc2ccc(N3CCN4CCCC4C3)cc21` (centres undefined), the inhibition in [2] was 79%; in assay [3] it was 2%; in assay [4], 9%; in assay [5], 5%; in assay [6], 32%; in assay [7], 36%. Also, the inhibition in assay [8] was 17%; in [9], 8%; in assay [10] it was 0%; in assay [11], 1%; in assay [12] it was 22%; in [13] it was 0%. Besides, the inhibition in assay [14] came to 0%; in assay [15], 0%; in assay [16], 7%.
